From patent US20250354195A1, “METHOD OF SCREENING” (UNIVERSITY OF DUNDEE, priority 2024, published 2025)

Target: T1, GSK3β (Homo sapiens, UniProt P49841+Q96SW2)
T1 construct: genetically engineered using CRISPR/Cas9 technology to endogenously tag GSK3p protein with HiBiT tag at the C-terminus; host or cells: HEK293 cells, CRISPR/Cas9 knock-in of HiBiT at the endogenous GSK3B locus
Test: High throughput screening for GSK3β-HiBiT targeted degradation (Nano-Glo HiBiT Lytic luminescence)
Type: cell-based
Details: HEK293 cells with endogenously HiBiT-tagged GSK3β, 24 h incubation, products of one-pot plate array (FIG. 1, Method A); for DC50: 0.01-30 μM, read-out: DC50 (half-maximal degradation concentration)
Procedure: High throughput Screening for GSK3 β-HiBiTL: Test compounds were transferred into Echo plate (Beckman, 001-12782, Echo LDV384) using BRAVO automated liquid handling platform which serves as source plate (10 mM stocks in DMSO). Serial dilutions of the compounds were done using Echo550 liquid handler as 30 μM, 10 μM, 3 μM, 1 μM, 0.3 μM, 0.1 μM, 0.03 μM and 0.01 μM in final concentrations in assay plates. One column of each assay plate was reserved for DMSO control treatments. After compounds were serially diluted in assay plates, HEK293 cells (CRL-1573, ATCC) genetically engineered using CRISPR/Cas9 technology to endogenously tag GSK3p protein with HiBiT tag at the C-terminus (Schwinn et al., 2018, CRISPR-mediated tagging of endogenous proteins with a luminescent peptide, ACS Chem. Biol., 13(2), 467-74) were seeded at a density of 5000 cells/well in 50 μL complete media in 384-well TC-grade white plates (Perkin Elmer, Culturplate, 6007619) with the help of Multidrop Combi liquid dispenser and cells were incubated for 24 h with compounds at 37° C. in humidified incubators with 5% CO2. At the end of the treatment, equal volume of Nano-Glo HiBiT Lytic reagent (Promega N3030) supplied with Nano-Glo HiBiT Lytic substrate and LgBiT Protein were added into each well according to manufacturer's instructions, and cells were incubated on an orbital shaker for 15 seconds and for a further 15 minutes at room temperature. Luminescence signals were measured in an appropriate plate reader (PHERAstar FSX, BMG Labtech) (Dixon et al., 2016, NanoLuc complementation reporter optimized for accurate measurement of protein interactions in cells, ACS Chem. Biol., 11, 400-8). Changes in protein abundance upon compound treatment were further analysed by normalising raw luminescence values to DMSO values and fold changes were plotted using for parameter logistic regression with GraphPad Prism (10.1.2).
Furthermore, the present investigators have shown that bifunctional compounds manufactured using the method of the present disclosure may be effective in the uses of bifunctional compounds, for example as PROTACs in targeted protein degradation (TPD). […] GSK3p was targeted for degradation using a binder for GSK3p, and a binder for CRBN; the binders were comprised in molecules comprising moieties for reacting with the orthogonally reactive moieties of the linker. […] The “identifier” identifies the well of the multi-well plate that has been sampled, e.g., AHD2B-1-A1 relates to the top left well in FIG. 1. The DC50 provides an indication of the potency of the bifunctional compound in targeted degradation; Dmax provides an indication of the maximum possible degradation. The use of these metrics is further described in Flexible Fitting of PROTAC Concentration-Response Curves with Changepoint Gaussian Processes, Semenova et al., SLAS Discovery, 2021, 26, 1212-1224.

T1 sequence (P49841 whole entry): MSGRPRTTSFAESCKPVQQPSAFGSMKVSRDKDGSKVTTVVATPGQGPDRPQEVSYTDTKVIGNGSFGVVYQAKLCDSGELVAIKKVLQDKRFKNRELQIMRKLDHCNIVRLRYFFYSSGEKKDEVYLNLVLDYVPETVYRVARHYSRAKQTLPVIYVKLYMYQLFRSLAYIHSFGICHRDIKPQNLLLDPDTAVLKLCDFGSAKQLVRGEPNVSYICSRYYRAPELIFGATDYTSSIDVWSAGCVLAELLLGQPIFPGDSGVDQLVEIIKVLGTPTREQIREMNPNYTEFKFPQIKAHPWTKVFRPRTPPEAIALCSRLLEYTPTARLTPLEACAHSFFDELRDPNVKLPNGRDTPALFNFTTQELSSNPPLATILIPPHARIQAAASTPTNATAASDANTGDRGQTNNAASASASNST
T1 sequence (Q96SW2 whole entry): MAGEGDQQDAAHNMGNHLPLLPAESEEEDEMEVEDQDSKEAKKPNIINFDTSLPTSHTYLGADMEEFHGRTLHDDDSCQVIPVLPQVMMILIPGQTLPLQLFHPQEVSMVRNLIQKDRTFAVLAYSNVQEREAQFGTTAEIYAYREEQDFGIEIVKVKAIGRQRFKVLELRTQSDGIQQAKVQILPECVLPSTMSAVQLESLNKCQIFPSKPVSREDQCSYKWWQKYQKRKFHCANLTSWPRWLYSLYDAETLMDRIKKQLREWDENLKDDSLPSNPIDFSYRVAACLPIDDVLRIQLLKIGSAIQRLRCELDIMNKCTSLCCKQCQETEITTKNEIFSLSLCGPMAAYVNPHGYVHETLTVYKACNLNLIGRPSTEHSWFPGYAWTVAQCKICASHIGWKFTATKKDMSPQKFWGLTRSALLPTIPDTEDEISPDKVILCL
T1 sequence (Q16531 whole entry partner): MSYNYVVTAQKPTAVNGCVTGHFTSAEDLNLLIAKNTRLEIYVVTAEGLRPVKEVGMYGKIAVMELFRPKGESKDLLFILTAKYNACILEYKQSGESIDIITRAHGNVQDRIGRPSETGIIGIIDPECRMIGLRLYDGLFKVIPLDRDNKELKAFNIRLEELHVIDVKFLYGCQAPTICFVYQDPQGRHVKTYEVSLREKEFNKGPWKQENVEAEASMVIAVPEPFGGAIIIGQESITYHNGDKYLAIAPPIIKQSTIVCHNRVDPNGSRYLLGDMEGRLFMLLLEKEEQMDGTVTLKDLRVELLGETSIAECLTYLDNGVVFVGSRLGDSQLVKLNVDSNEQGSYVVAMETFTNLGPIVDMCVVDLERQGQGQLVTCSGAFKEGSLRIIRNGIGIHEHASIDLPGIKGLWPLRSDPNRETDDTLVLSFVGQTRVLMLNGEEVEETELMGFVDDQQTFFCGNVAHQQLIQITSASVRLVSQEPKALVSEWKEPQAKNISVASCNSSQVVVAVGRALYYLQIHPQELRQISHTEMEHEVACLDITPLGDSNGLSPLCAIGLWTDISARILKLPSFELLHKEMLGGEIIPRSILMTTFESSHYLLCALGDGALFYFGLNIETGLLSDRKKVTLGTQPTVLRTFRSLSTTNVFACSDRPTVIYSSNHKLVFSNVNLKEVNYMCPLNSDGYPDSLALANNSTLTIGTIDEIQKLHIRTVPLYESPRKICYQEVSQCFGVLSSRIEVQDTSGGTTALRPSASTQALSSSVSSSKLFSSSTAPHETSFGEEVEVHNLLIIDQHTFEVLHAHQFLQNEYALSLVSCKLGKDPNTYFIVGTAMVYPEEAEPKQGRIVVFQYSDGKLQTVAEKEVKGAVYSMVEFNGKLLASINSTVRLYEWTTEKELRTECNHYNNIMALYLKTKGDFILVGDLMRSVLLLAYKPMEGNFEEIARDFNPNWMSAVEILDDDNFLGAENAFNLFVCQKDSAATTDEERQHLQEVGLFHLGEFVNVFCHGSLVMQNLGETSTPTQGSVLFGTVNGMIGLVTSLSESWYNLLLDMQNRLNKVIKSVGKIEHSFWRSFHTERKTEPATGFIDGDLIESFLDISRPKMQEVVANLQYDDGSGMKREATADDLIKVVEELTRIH

DC50	Dmax (maximal effect)	SMILES
> 10 µM	<30%	COc1ccc(-c2ocnc2C(=O)NCCCn2cc(-c3cccc(CN4CCN(Cc5ccc(C(=O)NC6CCC(=O)NC6=O)nc5)CC4)n3)nn2)cc1Cl (stereo not shown) [AHD2B-1-F8]
> 10 µM	<30%	COc1ccc(-c2ocnc2C(=O)NCCCn2cc(CCCN3CCN(Cc4ccc(N5CCC(=O)NC5=O)cc4)CC3)nn2)cc1Cl [AHD2B-1-G12]
> 10 µM	<30%	COc1ccc(-c2ocnc2C(=O)NCCCn2cc(COC3CCN(Cc4cccc(N5CCC(=O)NC5=O)c4)CC3)nn2)cc1Cl [AHD2B-1-A5]
> 10 µM	<30%	COc1ccc(-c2ocnc2C(=O)NCCCn2cc(CCCN3CCN(Cc4ccc(C(=O)NC5CCC(=O)NC5=O)c(F)c4)CC3)nn2)cc1Cl (stereo not shown) [AHD2B-1-C12]
> 10 µM	<30%	COc1ccc(-c2ocnc2C(=O)NCCCn2cc(COC3CCN(CC(=O)N[C@H](C(=O)N4C[C@H](O)C[C@H]4C(=O)NCc4ccc(-c5scnc5C)cc4)C(C)(C)C)CC3)nn2)cc1Cl [AHD2B-1-B5]
7.1 µM	39%	COc1ccc(-c2ocnc2C(=O)NCCCn2cc(CCCCCN3CCCN(Cc4ccc(C(=O)NC5CCC(=O)NC5=O)c(F)c4)CC3)nn2)cc1Cl (stereo not shown) [AHD2B-1-C9]
> 10 µM	<30%	COc1ccc(-c2ocnc2C(=O)NCCCn2cc(CCCCCN3CCN(Cc4ccc(N5CCC(=O)NC5=O)cc4)CC3)nn2)cc1Cl [AHD2B-1-G7]
> 10 µM	<30%	COc1ccc(-c2ocnc2C(=O)NCCCn2cc(COC3CCN(Cc4ccc(N5CCC(=O)NC5=O)cc4)CC3)nn2)cc1Cl [AHD2B-1-G5]
> 10 µM	<30%	COc1ccc(-c2ocnc2C(=O)NCCCn2cc(CCCCN3CCN(Cc4ccc(C(=O)NC5CCC(=O)NC5=O)nc4)CC3)nn2)cc1Cl (stereo not shown) [AHD2B-1-F1]
< 0.25 µM	63%	COc1ccc(-c2ocnc2C(=O)NCCCn2cc(-c3ccc(CN4CCN(Cc5ccc6c(N7CCC(=O)NC7=O)nn(C)c6c5)CC4)cn3)nn2)cc1Cl [AHD2B-1-D2]
> 10 µM	<30%	COc1ccc(-c2ocnc2C(=O)NCCCn2cc(COc3ccc(CN4CCN(CC(=O)N[C@H](C(=O)N5C[C@H](O)C[C@H]5C(=O)NCc5ccc(-c6scnc6C)cc5)C(C)(C)C)CC4)cc3)nn2)cc1Cl [AHD2B-1-B3]
> 10 µM	<30%	COc1ccc(-c2ocnc2C(=O)NCCCn2cc(CCCCN3CCN(Cc4cccc(N5CCC(=O)NC5=O)c4)CC3)nn2)cc1Cl [AHD2B-1-A1]
0.55 µM	35%	COc1ccc(-c2ocnc2C(=O)NCCCn2cc(COC3CCN(Cc4ccc5c(N6CCC(=O)NC6=O)nn(C)c5c4)CC3)nn2)cc1Cl [AHD2B-1-D5]
1.9 µM	56%	COc1ccc(-c2ocnc2C(=O)NCCCn2cc(COc3ccc(CN4CC5(C4)CN(Cc4ccc(C(=O)NC6CCC(=O)NC6=O)c(F)c4)C5)cc3)nn2)cc1Cl (stereo not shown) [AHD2B-1-C11]
> 10 µM	<30%	COc1ccc(-c2ocnc2C(=O)NCCCn2cc(COc3ccc(CN4CC5(C4)CN(Cc4ccc(C(=O)NC6CCC(=O)NC6=O)nc4)C5)cc3)nn2)cc1Cl (stereo not shown) [AHD2B-1-F11]
> 10 µM	<30%	COc1ccc(-c2ocnc2C(=O)NCCCn2cc(CCCCN3CCN(CC(=O)N[C@H](C(=O)N4C[C@H](O)C[C@H]4C(=O)NCc4ccc(-c5scnc5C)cc4)C(C)(C)C)CC3)nn2)cc1Cl [AHD2B-1-B1]
> 10 µM	<30%	COc1ccc(-c2ocnc2C(=O)NCCCn2cc(COc3ccc(CN4CCC5(C4)CN(CC(=O)N[C@H](C(=O)N4C[C@H](O)C[C@H]4C(=O)NCc4ccc(-c6scnc6C)cc4)C(C)(C)C)C5)cc3)nn2)cc1Cl [AHD2B-1-B6]
> 10 µM	<30%	COc1ccc(-c2ocnc2C(=O)NCCCn2cc(CCCCCN3CCCN(Cc4ccc(C(=O)NC5CCC(=O)NC5=O)nc4)CC3)nn2)cc1Cl (stereo not shown) [AHD2B-1-F9]

DC50	Dmax (maximal effect)	SMILES
> 10 µM	<30%	COc1ccc(-c2ocnc2C(=O)NCCCn2cc(COc3ccc(CN4CC5(CN(CC(=O)N[C@H](C(=O)N6C[C@H](O)C[C@H]6C(=O)NCc6ccc(-c7scnc7C)cc6)C(C)(C)C)C5)C4)cc3)nn2)cc1Cl [AHD2B-1-B11]
> 10 µM	<30%	COc1ccc(-c2ocnc2C(=O)NCCCn2cc(CCCCCN3CCN(Cc4cccc(N5CCC(=O)NC5=O)c4)CC3)nn2)cc1Cl [AHD2B-1-A7]
> 10 µM	<30%	COc1ccc(-c2ocnc2C(=O)NCCCn2cc(COc3ccc(CN4CCC5(C4)CN(Cc4cccc(N6CCC(=O)NC6=O)c4)C5)cc3)nn2)cc1Cl [AHD2B-1-A6]
> 10 µM	<30%	COc1ccc(-c2ocnc2C(=O)NCCCn2cc(COc3ccc(CN4CC5(C4)CN(Cc4cccc(N6CCC(=O)NC6=O)c4)C5)cc3)nn2)cc1Cl [AHD2B-1-A11]
> 10 µM	<30%	COc1ccc(-c2ocnc2C(=O)NCCCn2cc(COc3ccc(CN4CCN(Cc5cccc(N6CCC(=O)NC6=O)c5)CC4)cc3)nn2)cc1Cl [AHD2B-1-A3]
> 10 µM	<30%	COc1ccc(-c2ocnc2C(=O)NCCCn2cc(COCCOCCN3CCN(Cc4ccc(C(=O)NC5CCC(=O)NC5=O)c(F)c4)CC3)nn2)cc1Cl (stereo not shown) [AHD2B-1-C10]
> 10 µM	<30%	COc1ccc(-c2ocnc2C(=O)NCCCn2cc(COCCOCCN3CCN(Cc4ccc(N5CCC(=O)NC5=O)cc4)CC3)nn2)cc1Cl [AHD2B-1-G10]
> 10 µM	<30%	COc1ccc(-c2ocnc2C(=O)NCCCn2cc(COc3ccc(CN4CCN(Cc5ccc(N6CCC(=O)NC6=O)cc5)CC4)cc3)nn2)cc1Cl [AHD2B-1-G3]
> 10 µM	<30%	COc1ccc(-c2ocnc2C(=O)NCCCn2cc(-c3cccc(CN4CCN(Cc5ccc(C(=O)NC6CCC(=O)NC6=O)c(F)c5)CC4)n3)nn2)cc1Cl (stereo not shown) [AHD2B-1-C8]
> 10 µM	<30%	COc1ccc(-c2ocnc2C(=O)NCCCn2cc(-c3cccc(CN4CCN(Cc5ccc(N6CCC(=O)NC6=O)cc5)CC4)n3)nn2)cc1Cl [AHD2B-1-G8]
> 10 µM	<30%	COc1ccc(-c2ocnc2C(=O)NCCCn2cc(COCCOCCN3CCN(CC(=O)N[C@H](C(=O)N4C[C@H](O)C[C@H]4C(=O)NCc4ccc(-c5scnc5C)cc4)C(C)(C)C)CC3)nn2)cc1Cl [AHD2B-1-B10]
> 10 µM	<30%	COc1ccc(-c2ocnc2C(=O)NCCCn2cc(CCCCCN3CCCN(CC(=O)N[C@H](C(=O)N4C[C@H](O)C[C@H]4C(=O)NCc4ccc(-c5scnc5C)cc4)C(C)(C)C)CC3)nn2)cc1Cl [AHD2B-1-B9]
> 10 µM	<30%	COc1ccc(-c2ocnc2C(=O)NCCCn2cc(CCCCCN3CCCN(Cc4cccc(N5CCC(=O)NC5=O)c4)CC3)nn2)cc1Cl [AHD2B-1-A9]
> 10 µM	<30%	COc1ccc(-c2ocnc2C(=O)NCCCn2cc(CCCCCN3CCCN(Cc4ccc(N5CCC(=O)NC5=O)cc4)CC3)nn2)cc1Cl [AHD2B-1-G9]
> 10 µM	<30%	COc1ccc(-c2ocnc2C(=O)NCCCn2cc(COCCOCCN3CCN(Cc4ccc(C(=O)NC5CCC(=O)NC5=O)nc4)CC3)nn2)cc1Cl (stereo not shown) [AHD2B-1-F10]
< 0.25 µM	53%	COc1ccc(-c2ocnc2C(=O)NCCCn2cc(CCCOc3ccc(CN4CCN(Cc5ccc(C(=O)NC6CCC(=O)NC6=O)c(F)c5)CC4)cc3)nn2)cc1Cl (stereo not shown) [AHD2B-1-C4]
> 10 µM	<30%	COc1ccc(-c2ocnc2C(=O)NCCCn2cc(-c3ccc(CN4CCN(CC(=O)N[C@H](C(=O)N5C[C@H](O)C[C@H]5C(=O)NCc5ccc(-c6scnc6C)cc5)C(C)(C)C)CC4)cn3)nn2)cc1Cl [AHD2B-1-B2]
